Measured values taken from ChEMBL document CHEMBL4402557, “Nidufexor (LMB763), a Novel FXR Modulator for the Treatment of Nonalcoholic Steatohepatitis” (J Med Chem, 2020).

How the values were obtained:
[1] = Volume of distribution at steady state in mouse at 3 mg/kg, iv; format: ADME, organism-based; settings: in vivo, read-out: Vdss
[2] = Ratio of AUC in Brain to plasma in Wistar rat […] at 10 mg/kg, po; format: ADME, organism-based; settings: read-out: Ratio AUC
Glucocorticoid receptor = target: T1, Glucocorticoid receptor (Homo sapiens, UniProt P04150); test: Agonist activity at Glucocorticoid receptor (unknown origin) incubated for 2 hrs by TR-FRET assay
T1 sequence (P04150 whole entry): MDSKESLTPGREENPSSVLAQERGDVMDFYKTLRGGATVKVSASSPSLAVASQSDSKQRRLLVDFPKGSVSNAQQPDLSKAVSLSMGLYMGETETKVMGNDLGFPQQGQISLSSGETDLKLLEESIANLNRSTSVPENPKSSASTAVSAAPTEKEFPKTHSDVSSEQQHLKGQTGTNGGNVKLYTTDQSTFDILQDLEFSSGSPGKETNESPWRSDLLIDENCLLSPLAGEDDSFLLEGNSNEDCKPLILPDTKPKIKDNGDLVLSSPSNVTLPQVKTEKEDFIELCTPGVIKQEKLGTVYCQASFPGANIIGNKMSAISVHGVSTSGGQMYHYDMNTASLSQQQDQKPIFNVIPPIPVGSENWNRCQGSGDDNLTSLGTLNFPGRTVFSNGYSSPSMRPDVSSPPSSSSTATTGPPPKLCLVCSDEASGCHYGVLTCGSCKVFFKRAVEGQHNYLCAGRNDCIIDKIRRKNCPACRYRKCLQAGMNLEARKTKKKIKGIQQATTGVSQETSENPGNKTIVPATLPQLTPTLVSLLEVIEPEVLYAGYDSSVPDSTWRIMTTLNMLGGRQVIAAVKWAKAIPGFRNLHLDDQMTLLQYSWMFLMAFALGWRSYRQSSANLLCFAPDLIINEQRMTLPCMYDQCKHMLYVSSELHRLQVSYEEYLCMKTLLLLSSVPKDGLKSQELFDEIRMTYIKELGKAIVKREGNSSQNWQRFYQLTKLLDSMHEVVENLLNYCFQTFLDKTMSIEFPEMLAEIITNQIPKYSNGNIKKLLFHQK

[3] = Cmax in Wistar rat at 30 mg/kg, po; format: ADME, organism-based; parameters: dose 30 mg/kg, route oral; settings: in vivo
Androgen receptor = target: T2, Androgen receptor (Homo sapiens, UniProt P10275); test: Agonist activity at androgen receptor (unknown origin) incubated for 2 hrs by TR-FRET assay
T2 sequence (P10275 whole entry): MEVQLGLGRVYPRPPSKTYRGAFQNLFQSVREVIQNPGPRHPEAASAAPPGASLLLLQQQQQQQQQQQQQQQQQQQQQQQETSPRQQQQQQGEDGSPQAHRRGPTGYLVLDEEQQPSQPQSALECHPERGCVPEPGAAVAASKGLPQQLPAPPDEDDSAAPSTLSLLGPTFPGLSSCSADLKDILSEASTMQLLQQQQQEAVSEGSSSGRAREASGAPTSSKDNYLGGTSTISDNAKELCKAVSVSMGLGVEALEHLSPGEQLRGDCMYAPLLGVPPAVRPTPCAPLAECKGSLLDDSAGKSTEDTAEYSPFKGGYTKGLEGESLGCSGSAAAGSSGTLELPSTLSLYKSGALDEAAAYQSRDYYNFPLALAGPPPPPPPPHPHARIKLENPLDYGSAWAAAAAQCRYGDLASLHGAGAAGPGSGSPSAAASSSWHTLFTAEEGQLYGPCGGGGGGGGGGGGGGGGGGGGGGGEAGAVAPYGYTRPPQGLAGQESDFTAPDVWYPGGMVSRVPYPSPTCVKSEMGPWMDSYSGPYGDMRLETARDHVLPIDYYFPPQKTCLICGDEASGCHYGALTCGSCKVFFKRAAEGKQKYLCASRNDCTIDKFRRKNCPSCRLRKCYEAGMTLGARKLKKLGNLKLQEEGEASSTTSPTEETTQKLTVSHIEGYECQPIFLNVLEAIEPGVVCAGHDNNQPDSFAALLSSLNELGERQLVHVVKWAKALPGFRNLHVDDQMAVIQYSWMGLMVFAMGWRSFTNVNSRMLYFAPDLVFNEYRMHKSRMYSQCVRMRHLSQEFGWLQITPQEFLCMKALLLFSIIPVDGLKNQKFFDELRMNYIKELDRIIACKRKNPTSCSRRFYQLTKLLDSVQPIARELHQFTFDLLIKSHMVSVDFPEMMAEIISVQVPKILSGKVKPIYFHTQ

[4] = Oral bioavailability in Wistar rat at 100 mg/kg; format: ADME, organism-based; settings: in vivo
[5] = Oral bioavailability in Wistar rat at 10 mg/kg in presence of PEG 300/D5W(3:1); format: ADME, organism-based; settings: in vivo
[6] = Half life in Wistar rat at 30 mg/kg, po; format: ADME, organism-based; settings: in vivo
[7] = Volume of distribution at steady state in dog at 0.5 mg/kg, iv; format: ADME, organism-based, Canis lupus familiaris; settings: in vivo, read-out: Vdss

Vd [1]: 0.9 L/kg
Kp [2]: 0.05
EC50 (Glucocorticoid receptor): > 30 µM
Cmax [3]: 28.1 µM
EC50 (Androgen receptor): > 30 µM
bioavailability [4]: 82%
bioavailability [5]: 51%
half-life [6]: 6.3 h
Vd [7]: 1.1 L/kg
SMILES: Cn1nc(C(=O)N(Cc2ccccc2)Cc2ccc(C(=O)O)cc2)c2c1-c1cc(Cl)ccc1OC2 [NIDUFEXOR]
